# Test results taken from patent US11440899B2, “Pyrimidine TBK/IKKe inhibitor compounds and uses thereof” (Merck Patent GmbH, priority 2017, dated 2022).
# Where a name gives a salt, the structure may show the parent alone.
# Assays:
# [1] = target: IKKe (Homo sapiens (Human), UniProt Q14164); assay: IKKe Biochemical Assay
# Method: IKKe Biochemical Assay Test compounds were transferred into Labcyte polypropylene 384 well plates ([…]-25) and diluted to 3 mM using DMSO. 3 mM test compounds were dispensed using Labcyte ECHO dose response module into Greiner 784075 plates (columns 3-12 and 13-22, 10 point 1:4) so that high concentration was 30 uM final. 100 uM of a reference compound (1 uM final high concentration). Backfilling was performed if necessary so that all wells contain 1% DMSO final: add 75 nl DMSO/well into columns 1, 2 and 24 using Labcyte Echo. add 75 nl 1.0 mM staurosporine/well into column 23 using Labcyte Echo (10 uM final) add 4.5 ul enzyme/well using multidrop dispenser add 3 ul substrate/well using multidrop dispenser incubate at 25° C. for 90 min. add 7.5 ul 2× stop buffer read on labchip ez reader II using IKKε. job Raw data files were opened in the Caliper LabChip Reviewer program (Version 3.0.265.0 SP2) and peak assignments were adjusted to reflect “substrate first” with the software's post-run analysis options. A spline-fit baseline was applied using the software's analysis algorithm.
# [2] = target: TBK1 (Homo sapiens (Human), UniProt Q9UHD2); assay: TBK Biochemical Assay
# TBK1, sequence (Q9UHD2 whole entry, species assumed): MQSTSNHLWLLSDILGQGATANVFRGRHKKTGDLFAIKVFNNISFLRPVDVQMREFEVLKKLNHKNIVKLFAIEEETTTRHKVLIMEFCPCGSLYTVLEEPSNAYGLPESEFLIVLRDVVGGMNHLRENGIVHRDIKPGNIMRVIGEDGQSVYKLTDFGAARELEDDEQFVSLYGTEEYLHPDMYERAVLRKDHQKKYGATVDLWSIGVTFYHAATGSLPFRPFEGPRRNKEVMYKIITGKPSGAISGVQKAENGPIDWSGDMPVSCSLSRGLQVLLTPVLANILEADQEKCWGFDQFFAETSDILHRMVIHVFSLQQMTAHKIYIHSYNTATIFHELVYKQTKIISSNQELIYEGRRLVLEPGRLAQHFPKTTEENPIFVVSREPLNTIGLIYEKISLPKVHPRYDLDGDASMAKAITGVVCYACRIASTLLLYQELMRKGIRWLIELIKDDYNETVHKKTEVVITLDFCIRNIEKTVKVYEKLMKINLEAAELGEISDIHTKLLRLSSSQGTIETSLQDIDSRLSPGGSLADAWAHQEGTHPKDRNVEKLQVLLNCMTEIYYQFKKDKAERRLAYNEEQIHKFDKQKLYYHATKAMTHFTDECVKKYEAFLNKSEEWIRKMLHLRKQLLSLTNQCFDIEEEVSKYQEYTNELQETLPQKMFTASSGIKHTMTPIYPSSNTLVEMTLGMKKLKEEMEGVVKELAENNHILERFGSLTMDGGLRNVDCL
# Method: Example 106: TBK Biochemical Assay Test compounds were transferred into Labcyte polypropylene 384 well plates ([…]-25) and diluted to 3 mM using DMSO. 3 mM test compounds were dispensed using Labcyte ECHO dose response module into Greiner 784075 plates (columns 3-12 and 13-22, 10 point 1:4) so that high concentration was 30 uM final. 100 uM of a reference compound (1 uM final high concentration). Backfilling was performed if necessary so that all wells contain 1% DMSO final: add 75 nl DMSO/well into columns 1, 2 and 24 using Labcyte Echo. add 75 nl 1.0 mM staurosporine/well into column 23 using Labcyte Echo (10 uM final) add 4.5 ul enzyme/well using multidrop dispenser add 3 ul substrate/well using multidrop dispenser incubate at 25° C. in Heidolph incubator for 90 min. add 7.5 ul 2× stop buffer using multidrop dispenser read on labchip ez reader II using TBK1.job Raw data files were opened in the Caliper LabChip Reviewer program (Version 3.0.265.0 SP2) and peak assignments were adjusted to reflect “substrate first” with the software's post-run analysis options. A spline-fit baseline was applied using the software's analysis algorithm.
# IKKe, sequence (Q14164 whole entry, species assumed): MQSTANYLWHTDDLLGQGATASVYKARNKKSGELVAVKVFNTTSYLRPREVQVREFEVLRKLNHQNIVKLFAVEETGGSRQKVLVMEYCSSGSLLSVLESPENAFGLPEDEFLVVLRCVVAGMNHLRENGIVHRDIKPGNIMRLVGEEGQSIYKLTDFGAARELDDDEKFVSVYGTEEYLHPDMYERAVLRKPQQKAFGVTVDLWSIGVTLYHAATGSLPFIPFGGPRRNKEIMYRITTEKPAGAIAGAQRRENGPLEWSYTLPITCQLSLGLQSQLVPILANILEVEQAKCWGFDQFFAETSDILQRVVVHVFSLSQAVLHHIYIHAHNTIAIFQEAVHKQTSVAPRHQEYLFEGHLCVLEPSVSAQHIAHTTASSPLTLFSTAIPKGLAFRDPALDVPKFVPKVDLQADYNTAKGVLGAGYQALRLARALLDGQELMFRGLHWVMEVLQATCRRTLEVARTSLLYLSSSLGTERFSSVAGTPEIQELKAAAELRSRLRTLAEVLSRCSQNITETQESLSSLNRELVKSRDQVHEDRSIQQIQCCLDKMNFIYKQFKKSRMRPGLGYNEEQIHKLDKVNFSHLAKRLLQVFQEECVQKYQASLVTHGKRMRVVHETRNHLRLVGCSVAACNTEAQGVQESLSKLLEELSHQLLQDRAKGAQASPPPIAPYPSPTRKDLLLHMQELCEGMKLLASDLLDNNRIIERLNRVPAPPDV
SMILES,IC50 [1],IC50 [2]
"COc1nc(Nc2cc(-c3ccc(OC4CCOCC4)c(C#N)c3)ncn2)ccc1C(=O)N1CC2CC(C1)O2 [Example 3, 5-(6-[[6-methoxy-5-([6-oxa-3-azabicyclo[3.1.1]heptan-3-yl]carbonyl)pyridin-2-yl]amino]pyrimidin-4-yl)-2-(oxan-4-yloxy)benzonitrile]",< 100 nM,< 100 nM
"COc1nc(Nc2cc(-c3ccc(OC4CCOCC4)c(C#N)c3)ncn2)ccc1C(=O)N1CC2CCC(C1)O2 [Example 5, 5-(6-((5-(8-oxa-3-azabicyclo[3.2.1]octane-3-carbonyl)-6-methoxypyridin-2-yl)amino)pyrimidin-4-yl)-2-((tetrahydro-2H-pyran-4-yl)oxy)benzonitrile]",< 100 nM,< 100 nM
"COc1nc(Nc2cc(-c3ccc(OC4CCOCC4)c(C#N)c3)ncn2)ccc1C(=O)NC1CCN(C)CC1 [Example 7, 6-([6-[3-cyano-4-(oxan-4-yloxy)phenyl]pyrimidin-4-yl]amino)-2-methoxy-N-(1-methylpiperidin-4-yl)pyridine-3-carboxamide hydrochloride]",< 100 nM,< 100 nM
"COc1nc(Nc2cc(-c3ccc(OC4CCOCC4)c(C#N)c3)ncn2)ccc1N1CCS(=O)(=O)CC1 [Example 10, 5-(6-[[5-(1,1-dioxo-1λ,4-thiomorpholin-4-yl)-6-methoxypyridin-2-yl]amino]pyrimidin-4-yl)-2-(oxan-4-yloxy)benzonitrile]",< 100 nM,< 100 nM
"COc1nc(Nc2cc(-c3ccc(OC4CCOCC4)c(C#N)c3)ncn2)ccc1N(C)CCN(C)C [Example 11, 5-[6-[(5-[[2-(dimethylamino)ethyl](methyl)amino]-6-methoxypyridin-2-yl)amino]pyrimidin-4-yl]-2-(oxan-4-yloxy)benzonitrile]",< 100 nM,< 100 nM
"COc1nc(Nc2cc(-c3ccc(OC4CCOCC4)c(C#N)c3)ncn2)ccc1N1CCN(C)CC1 [Example 12, 5-(6-[[6-methoxy-5-(4-methylpiperazin-1-yl)pyridin-2-yl]amino]pyrimidin-4-yl)-2-(oxan-4-yloxy)benzonitrile]",< 100 nM,< 100 nM
"COc1nc(Nc2cc(-c3ccc(OC4CCOCC4)c(C#N)c3)ncn2)ccc1N1CCN(CC(F)F)CC1 [Example 14, 5-[6-([5-[4-(2,2-difluoroethyl)piperazin-1-yl]-6-methoxypyridin-2-yl]amino)pyrimidin-4-yl]-2-(oxan-4-yloxy)benzonitrile]",< 100 nM,< 100 nM
"COc1nc(Nc2cc(-c3ccc(OC4CCOCC4)c(C#N)c3)ncn2)ccc1N1C[C@@H](C)N(C2COC2)[C@@H](C)C1 [Example 16, 5-[6-([5-[(3R,5S)-3,5-dimethyl-4-(oxetan-3-yl)piperazin-1-yl]-6-methoxypyridin-2-yl]amino)pyrimidin-4-yl]-2-(oxan-4-yloxy)benzonitrile]",< 100 nM,< 100 nM
"COc1nc(Nc2cc(-c3ccc(OC4CCOCC4)c(C#N)c3)ncn2)ccc1C1CCN(C)C1 (centres unmarked) [Example 20, 5-(6-[[6-methoxy-5-(1-methylpyrrolidin-3-yl)pyridin-2-yl]amino]pyrimidin-4-yl)-2-(oxan-4-yloxy)benzonitrile]",< 100 nM,< 100 nM
"COc1nc(Nc2cc(-c3ccc(O[C@@H]4CCN(C(=O)CO)CC4(F)F)c(C#N)c3)ncn2)ccc1N1CCN(C)CC1 [Example 61, 2-[[(4R)-3,3-difluoro-1-(2-hydroxyacetyl)piperidin-4-yl]oxy]-5-(6-[[6-methoxy-5-(4-methylpiperazin-1-yl)pyridin-2-yl]amino]pyrimidin-4-yl)benzonitrile]",–,< 100 nM

# The next lines start with the values.
IC50 [1],IC50 [2],SMILES
< 100 nM,< 100 nM,"COc1nc(Nc2cc(-c3ccc(OC4CCOCC4)c(C#N)c3)ncn2)ccc1C(=O)N(C)C [Example 1, 6-([6-[3-cyano-4-(oxan-4-yloxy)phenyl]pyrimidin-4-yl]amino)-2-methoxy-N,N-dimethylpyridine-3-carboxamide]"
< 100 nM,< 100 nM,"COc1nc(Nc2cc(-c3ccc(OC4CCOCC4)c(C#N)c3)ncn2)ccc1C(=O)N(C)CCO [Example 2, 6-([6-[3-cyano-4-(oxan-4-yloxy)phenyl]pyrimidin-4-yl]amino)-N-(2-hydroxyethyl)-2-methoxy-N-methylpyridine-3-carboxamide]"
< 100 nM,< 100 nM,"COc1nc(Nc2cc(-c3ccc(OC4CCOCC4)c(C#N)c3)ncn2)ccc1C(=O)NC1C2COCC21 (centres unmarked) [Example 4, 6-([6-[3-cyano-4-(oxan-4-yloxy)phenyl]pyrimidin-4-yl]amino)-2-methoxy-N-[3-oxabicyclo[3.1.0]hexan-6-yl]pyridine-3-carboxamide]"
< 100 nM,< 100 nM,"COc1nc(Nc2cc(-c3ccc(OC4CCOCC4)c(C#N)c3)ncn2)ccc1C(=O)N1CC2COCC2C1 (centres unmarked) [Example 6, 5-(6-[[5-([hexahydro-1H-furo[3,4-c]pyrrol-5-yl]carbonyl)-6-methoxypyridin-2-yl]amino]pyrimidin-4-yl)-2-(oxan-4-yloxy)benzonitrile]"
1000 to 5000 nM,1000 to 5000 nM,"COc1nc(Nc2cc(-c3ccc(OC4CCOCC4)c(C#N)n3)ncn2)ccc1C(=O)N(C)C [Example 8, 6-([6-[6-cyano-5-(oxan-4-yloxy)pyridin-2-yl]pyrimidin-4-yl]amino)-2-methoxy-N,N-dimethylpyridine-3-carboxamide]"
< 100 nM,< 100 nM,"COc1nc(Nc2cc(-c3cnc(OC4CCOCC4)c(C#N)c3)ncn2)ccc1C(=O)N(C)C [Example 9, 6-([6-[5-cyano-6-(oxan-4-yloxy)pyridin-3-yl]pyrimidin-4-yl]amino)-2-methoxy-N,N-dimethylpyridine-3-carboxamide hydrochloride]"
< 100 nM,< 100 nM,"COc1nc(Nc2cc(-c3ccc(OC4CCOCC4)c(C#N)c3)ncn2)ccc1N(C)CC(=O)N(C)C [Example 13, 2-[[6-([6-[3-cyano-4-(oxan-4-yloxy)phenyl]pyrimidin-4-yl]amino)-2-methoxypyridin-3-yl](methyl)amino]-N,N-dimethylacetamide]"
< 100 nM,< 100 nM,"COc1nc(Nc2cc(-c3ccc(OC4CCOCC4)c(C#N)c3)ncn2)ccc1N1C[C@@H](C)O[C@@H](C)C1 [Example 15, 5-[6-([5-[(2R,6S)-2,6-dimethylmorpholin-4-yl]-6-methoxypyridin-2-yl]amino)pyrimidin-4-yl]-2-(oxan-4-yloxy)benzonitrile]"
< 100 nM,< 100 nM,"COc1nc(Nc2cc(-c3ccc(OC4CCOCC4)c(C#N)c3)ncn2)ccc1C1CCNCC1 [Example 17, 5-(6-[[6-methoxy-5-(piperidin-4-yl)pyridin-2-yl]amino]pyrimidin-4-yl)-2-(oxan-4-yloxy)benzonitrile]"
< 100 nM,< 100 nM,"COc1nc(Nc2cc(-c3ccc(OC4CCOCC4)c(C#N)c3)ncn2)ccc1C1CCN(C)CC1 [Example 18, 5-(6-[[6-methoxy-5-(1-methylpiperidin-4-yl)pyridin-2-yl]amino]pyrimidin-4-yl)-2-(oxan-4-yloxy)benzonitrile]"
< 100 nM,< 100 nM,"COc1nc(Nc2cc(-c3ccc(OC4CCOCC4)c(C#N)c3)ncn2)ccc1CNC1CCN(C)CC1 [Example 19, 5-[6-[(6-methoxy-5-[[(1-methylpiperidin-4-yl)amino]methyl]pyridin-2-yl)amino]pyrimidin-4-yl]-2-(oxan-4-yloxy)benzonitrile]"
